The values below come from PubChem BioAssay AID328 (DTP/NCI, 2004).

The experiment concerns BDF1 mice, P388 leukemia ip, median survival T/C. In words: NCI In Vivo Anticancer Drug Screen. Data for tumor model P388 Leukemia (intraperitoneal) in B6D2F1 (BDF1) mice. To be noted: endpoint: median survival time, higher = longer survival. The gist of the method:
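Transplantable tumour in mice; compound vs vehicle dosing; survival scored; ratio of treated to control reported.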

Where [1] appears, read: dose: 25.0 mg/kg/injection, schedule: Q01DX009 (ip), vehicle: saline with Tween-80.
The mark [2] stands for this setting: dose: 50.0 mg/kg/injection, schedule: Q01DX009 (ip), vehicle: saline with Tween-80.
Setting [3] is: dose: 100.0 mg/kg/injection, schedule: Q01DX009 (ip), vehicle: saline with Tween-80.
The mark [4] stands for this setting: dose: 100.0 mg/kg/injection, schedule: Q04DX003 (ip), vehicle: saline with Tween-80.
Setting [5] is: dose: 200.0 mg/kg/injection, schedule: Q01DX009 (ip), vehicle: saline with Tween-80.
[6] abbreviates: dose: 200.0 mg/kg/injection, schedule: Q04DX003 (ip), vehicle: saline with Tween-80.
Where [7] appears, read: dose: 400.0 mg/kg/injection, schedule: Q04DX003 (ip), vehicle: saline with Tween-80.

Several values for one entry are separate records, joined by “and”; a condition that tells them apart may be missing. Identical values can stand only once. Toxic doses and inconclusive results are not listed.

With `O=c1[nH]c(=O)n([C@H]2CCCO2)cc1F`, the T/C is, setting by setting: (dose: 23.0 mg/kg/injection, schedule: Q01DX009 (ip), vehicle: water) 89 % of control; (dose: 39.0 mg/kg/injection, schedule: Q01DX009 (ip), vehicle: water) 87 % of control; (dose: 44.0 mg/kg/injection, schedule: Q01DX009 (ip), vehicle: Klucel (hydroxypropylcellulose) (HPC)) 104 % of control and 108 % of control and 109 % of control; (dose: 59.0 mg/kg/injection, schedule: Q01DX009 (ip), vehicle: Klucel (hydroxypropylcellulose) (HPC)) 100 % of control and 107 % of control and 111 % of control; (dose: 65.0 mg/kg/injection, schedule: Q01DX009 (ip), vehicle: water) 99 % of control; (dose: 65.0 mg/kg/injection, schedule: Q04DX003 (ip), vehicle: water) 89 % of control. The T/C by setting is: (dose: 75.0 mg/kg/injection, schedule: Q04DX003 (ip), vehicle: other) 118 % of control; (dose: 90.0 mg/kg/injection, schedule: Q01DX009 (ip), vehicle: Klucel (hydroxypropylcellulose) (HPC)) 87 % of control and 104 % of control and 112 % of control; (dose: 108.0 mg/kg/injection, schedule: Q01DX009 (ip), vehicle: water) 101 % of control; (dose: 108.0 mg/kg/injection, schedule: Q04DX003 (ip), vehicle: water) 98 % of control; (dose: 134.0 mg/kg/injection, schedule: Q01DX009 (ip), vehicle: Klucel (hydroxypropylcellulose) (HPC)) 108 % of control and 120 % of control (2×); (dose: 142.0 mg/kg/injection, schedule: Q04DX003 (ip), vehicle: Klucel (hydroxypropylcellulose) (HPC)) 103 % of control and 109 % of control and 110 % of control. Also, the T/C is, setting by setting: (dose: 150.0 mg/kg/injection, schedule: Q04DX003 (ip), vehicle: other) 118 % of control; (dose: 180.0 mg/kg/injection, schedule: Q01DX009 (ip), vehicle: water) 89 % of control; (dose: 180.0 mg/kg/injection, schedule: Q04DX003 (ip), vehicle: water) 96 % of control; (dose: 189.0 mg/kg/injection, schedule: Q04DX003 (ip), vehicle: Klucel (hydroxypropylcellulose) (HPC)) 105 % of control and 113 % of control and 117 % of control; (dose: 201.0 mg/kg/injection, schedule: Q01DX009 (ip), vehicle: Klucel (hydroxypropylcellulose) (HPC)) 102 % of control and 111 % of control; (dose: 288.0 mg/kg/injection, schedule: Q04DX003 (ip), vehicle: Klucel (hydroxypropylcellulose) (HPC)) 109 % of control and 112 % of control and 118 % of control. Moreover, the T/C is, setting by setting: (dose: 300.0 mg/kg/injection, schedule: Q04DX003 (ip), vehicle: other) 118 % of control; (dose: 300.0 mg/kg/injection, schedule: Q04DX003 (ip), vehicle: water) 100 % of control; (dose: 316.0 mg/kg/injection, schedule: Q01DX001 (ip), vehicle: Klucel (hydroxypropylcellulose) (HPC)) 104 % of control (2×) and 109 % of control; (dose: 421.0 mg/kg/injection, schedule: Q01DX001 (ip), vehicle: Klucel (hydroxypropylcellulose) (HPC)) 109 % of control and 111 % of control and 123 % of control; (dose: 430.0 mg/kg/injection, schedule: Q04DX003 (ip), vehicle: Klucel (hydroxypropylcellulose) (HPC)) 109 % of control and 110 % of control and 113 % of control; (dose: 500.0 mg/kg/injection, schedule: Q04DX003 (ip), vehicle: water) 92 % of control. The T/C was 95 % of control (dose: 600.0 mg/kg/injection, schedule: Q04DX003 (ip), vehicle: other); 104 % of control and 118 % of control and 124 % of control (dose: 641.0 mg/kg/injection, schedule: Q01DX001 (ip), vehicle: Klucel (hydroxypropylcellulose) (HPC)); 111 % of control and 114 % of control (dose: 645.0 mg/kg/injection, schedule: Q04DX003 (ip), vehicle: Klucel (hydroxypropylcellulose) (HPC)); 104 % of control and 123 % of control (dose: 957.0 mg/kg/injection, schedule: Q01DX001 (ip), vehicle: Klucel (hydroxypropylcellulose) (HPC)); 90 % of control (dose: 1200.0 mg/kg/injection, schedule: Q04DX003 (ip), vehicle: other); 105 % of control and 117 % of control (dose: 1436.0 mg/kg/injection, schedule: Q01DX001 (ip), vehicle: Klucel (hydroxypropylcellulose) (HPC)).
With `O=C1SC2(CCCCC2)SC1=O`, the T/C reads like this: under setting [1], 95 % of control; under setting [2], 95 % of control; under setting [3], 104 % of control.
In the case of `CNc1cccnc1/C=N/NC(N)=S`, the T/C was 194 % of control under setting [2] and 181 % of control under setting [3].
Take `Nc1nc(C=O)c(Cc2ccc(Br)cc2)c(=O)[nH]1`: the T/C under setting [1] is 123 % of control; the T/C (dose: 25.0 mg/kg/injection, schedule: Q04DX003 (ip), vehicle: saline with Tween-80) was 104 % of control; the T/C under setting [2] was 123 % of control; the T/C (dose: 50.0 mg/kg/injection, schedule: Q04DX003 (ip), vehicle: saline with Tween-80) is 104 % of control; the T/C (dose: 66.0 mg/kg/injection, schedule: Q01DX009 (ip), vehicle: saline with Tween-80) was 110 % of control; the T/C under setting [4] is 113 % of control.
As for `C[n+]1c(-c2ccc(Cl)cc2Cl)c2cc(N)ccc2c2ccccc21`, the T/C reads like this: (dose: 0.09 mg/kg/injection, schedule: Q01DX009 (ip), vehicle: water) 98 % of control; (dose: 0.19 mg/kg/injection, schedule: Q01DX009 (ip), vehicle: water) 90 % of control; (dose: 0.39 mg/kg/injection, schedule: Q01DX009 (ip), vehicle: water) 98 % of control; (dose: 0.78 mg/kg/injection, schedule: Q01DX009 (ip), vehicle: water) 98 % of control; (dose: 1.56 mg/kg/injection, schedule: Q01DX009 (ip), vehicle: water) 102 % of control and 120 % of control; (dose: 3.12 mg/kg/injection, schedule: Q01DX009 (ip), vehicle: water) 98 % of control and 112 % of control.
`C[C@]12CCC(=O)C=C1CC[C@H]1[C@@H]3CC[C@](O)(C(=O)CO)[C@@]3(C)C[C@H](O)[C@@]12F`: the T/C is 104 % of control (dose: 12.5 mg/kg/injection, schedule: Q01DX009 (ip), vehicle: Klucel (hydroxypropylcellulose) (HPC)); 109 % of control (dose: 25.0 mg/kg/injection, schedule: Q01DX009 (ip), vehicle: Klucel (hydroxypropylcellulose) (HPC)); 109 % of control (dose: 50.0 mg/kg/injection, schedule: Q01DX009 (ip), vehicle: Klucel (hydroxypropylcellulose) (HPC)); 90 % of control (dose: 100.0 mg/kg/injection, schedule: Q01DX009 (ip), vehicle: Klucel (hydroxypropylcellulose) (HPC)); 120 % of control (dose: 100.0 mg/kg/injection, schedule: Q04DX003 (ip), vehicle: Klucel (hydroxypropylcellulose) (HPC)); 115 % of control (dose: 200.0 mg/kg/injection, schedule: Q04DX003 (ip), vehicle: Klucel (hydroxypropylcellulose) (HPC)). Besides, where the note is “dose: 400.0 mg/kg/injection, schedule: Q04DX003 (ip), vehicle: Klucel (hydroxypropylcellulose) (HPC)”, the T/C was 90 % of control.
Consider `CC1(C)OB(C(B2OC(C)(C)C(C)(C)O2)=C(CCl)CCl)OC1(C)C`, for which the T/C reads like this: (dose: 25.0 mg/kg/injection, schedule: Q01DX001 (ip), vehicle: saline sonified) 86 % of control; (dose: 50.0 mg/kg/injection, schedule: Q01DX001 (ip), vehicle: saline sonified) 95 % of control; (dose: 100.0 mg/kg/injection, schedule: Q01DX001 (ip), vehicle: saline sonified) 95 % of control.
On to `CC(=O)CC(C)=O.CC(=O)CC(C)=O.C[CH2][Sn][CH2]C`, for which the T/C (dose: 12.5 mg/kg/injection, schedule: Q01DX001 (ip), vehicle: Klucel (hydroxypropylcellulose) (HPC)) was 116 % of control.
As to `O=c1ccc2cc(-c3ccncc3)cnc2[nH]1`, the T/C (dose: 100.0 mg/kg/injection, schedule: Q04DX002 (ip), vehicle: saline with Tween-80) is 108 % of control.
Regarding `CN(C)CCCNc1cc(/C=C/c2cccc3ccccc23)nc2ccccc12`, the T/C is, setting by setting: under setting [2], 95 % of control; under setting [3], 88 % of control; under setting [5], 101 % of control.
In the case of `N#Cc1ccc(NCCO)cc1`, the T/C is, setting by setting: under setting [4], 111 % of control; under setting [6], 100 % of control; under setting [7], 111 % of control.
In the case of `O=C(O)CNC(=O)/C(=C\c1[nH]c(=O)[nH]c(=O)c1Br)NC(=O)c1ccccc1`, the T/C under setting [4] is 90 % of control, the T/C under setting [6] was 104 % of control and the T/C under setting [7] is 100 % of control.
As to `CC(C)CC(C(N)=O)c1ccccc1` (stereo not drawn), the T/C reads like this: (dose: 100.0 mg/kg/injection, schedule: Q01DX001 (ip), vehicle: saline with Tween-80) 100 % of control; (dose: 200.0 mg/kg/injection, schedule: Q01DX001 (ip), vehicle: saline with Tween-80) 104 % of control.
In the case of `Cc1c2ccnc(-c3ccccc3)c2cc2c1[nH]c1ccccc12`, the T/C was 102 % of control under setting [2], 100 % of control under setting [3] and 102 % of control under setting [5].
